From patent US20150031102A1, “METHODS AND COMPOSITIONS FOR ENHANCED PRODUCTION OF BUTANOL BY CLOSTRIDIA” (Butrolix LLC, priority 2012, published 2015)
“Also recorded” adds a separate entry of the source. Marks after values point to notes of the source that are not given here.

Test system: C. acetobutylicum
Test: Time course study of replicate 250 mL batch cultures (growth, butanol, residual glucose, yield, productivity)
Type: cell-based, Clostridium acetobutylicum
Conditions: for Increased butanol concentration versus untreated: 50 nM BP1106213; for Residual glucose: initial glucose 60 g/L; for Butanol yield from glucose: starting glucose 60 g/L
Protocol: Subsequently, time-course studies were conducted using the optimum peptide treatment level that was determined by the sequential batch transfer experiments. Untreated and peptide-treated cultures were grown in triplicate 250 mL batches that were inoculated with […] of the ninth sequential transfer from 24-well culture plates. The 1/1000 ratio of inoculum to culture volume was the same as that used throughout the prior sequential batch transfer experiments, and the replicate time course batch cultures corresponded to the 10th sequential batch transfer. Samples were recovered from the triplicate control and experimental batches a regular time intervals up to 96 hours of culture. Optical density of the replicates was measured and culture supernatants were recovered following centrifugation and analyzed later for butanol and residual glucose concentrations. The analyses were used to calculate yield and productivity of the cultures.
Clostridium acetobutylicum strain ATCC 824 was used in all experiments and the growth medium used for sequential batch transfer, time course, and continuous culture experiments contained yeast extract, casamino acids, L-cysteine, L-asparagine, phosphate buffer, trace minerals, and 6% glucose. What are believed to be quorum-sensing peptides that were used in the experiments were chemically synthesized peptides SEQ ID NO: 143 (amino acid sequence: SYPGWSW) and SEQ ID NO: 144 (amino acid sequence: ILILISG). Routine growth of the bacteria as well as the sequential batch and time course experiments were conducted in a Form a Scientific Model 1029 anaerobic gas chamber at 32° C. Continuous cultures were performed at 32° C. using duplicate New Brunswick Scientific BioFlo 3000 apparati with a dilution rate of 0.01 volume per hour, 75 rpm agitation, and nitrogen gas sparging. Optical density of culture samples was measured at 600 nm in a Beckman DU 600 series spectrophotometer and glucose was analyzed using a YSI Model 2700 Select Biochemistry Analyzer with internal glucose calibration. Butanol concentrations were determined by measuring experimental and standard samples using a Varian Saturn 3 Gas Chromatograph/Mass Spectrometer and calculating butanol concentrations using standard curves.
(§1) The study was started by inoculating triplicate 250 mL batches of untreated and peptide-treated medium with 250 μL of the corresponding ninth sequential transfer from 24-well culture plates. Therefore, the replicate time course batch cultures corresponded to the 10th sequential batch transfer. Samples were recovered from the triplicate control and experimental batches at regular time intervals up to 96 hours of culture for measurement of optical density at 600 nm and analysis of butanol and residual glucose concentrations.
as §1, with “Like the previous time course experiment, this” for “The”, “As before, samples” for “Therefore, the replicate time course batch cultures corresponded to the 10th sequential batch transfer. Samples”, “density” for “density at 600 nm”

[1] = 50 nM peptide, 0 hours, average ± SD of triplicate, second time course study
[2] = 50 nM peptide, 6 hours, average ± SD of triplicate, second time course study
[3] = 50 nM peptide, 12 hours, average ± SD of triplicate, second time course study
[4] = 50 nM peptide, 15 hours, average ± SD of triplicate, second time course study
[5] = 50 nM peptide, 18 hours, average ± SD of triplicate, second time course study
[6] = 50 nM peptide, 21 hours, average ± SD of triplicate, second time course study
[7] = 50 nM peptide, 24 hours, average ± SD of triplicate, second time course study
[8] = 50 nM peptide, 27 hours, average ± SD of triplicate, second time course study
[9] = 50 nM peptide, 30 hours, average ± SD of triplicate, second time course study
[10] = 50 nM peptide, 33 hours, average ± SD of triplicate, second time course study
[11] = 50 nM peptide, 36 hours, average ± SD of triplicate, second time course study
[12] = 50 nM peptide, 48 hours, average ± SD of triplicate, second time course study
[13] = 50 nM peptide, 72 hours, average ± SD of triplicate, second time course study
[14] = 50 nM peptide, 96 hours, average ± SD of triplicate, second time course study

ILILISG (Derived from Clostridium acetobutylicum SEQ ID NO: 110) [peptide SEQ ID NO: 144]
Increased butanol concentration versus untreated (72 hours of culture growth): ≤ 15% | Increased butanol concentration versus untreated (96 hours of culture growth): ≤ 21% | Butanol concentration [1]: 0.23 ± 0.00 g/L | Residual glucose [1]: 59.1 ± 0.9 g/L | Butanol concentration [2]: 0.24 ± 0.00 g/L | Residual glucose [2]: 59.8 ± 0.9 g/L | Butanol concentration [3]: 0.26 ± 0.01^c g/L | Residual glucose [3]: 60.7 ± 0.8 g/L | Butanol concentration [4]: 0.26 ± 0.01^c g/L | Residual glucose [4]: 58.4 ± 0.5 g/L | Butanol concentration [5]: 0.28 ± 0.01^c g/L | Residual glucose [5]: 57.4 ± 0.7 g/L | Butanol concentration [6]: 0.32 ± 0.01 g/L | Residual glucose [6]: 60.6 ± 0.8 g/L | Butanol concentration [7]: 0.52 ± 0.01^c g/L | Residual glucose [7]: 49.4 ± 0.7 g/L | Butanol concentration [8]: 0.64 ± 0.01 g/L | Residual glucose [8]: 50.4 ± 1.9 g/L | Butanol concentration [9]: 0.70 ± 0.04 g/L | Residual glucose [9]: 49.7 ± 1.9 g/L | Butanol concentration [10]: 0.82 ± 0.03 g/L | Residual glucose [10]: 47.6 ± 1.2 g/L | Butanol concentration [11]: 0.82 ± 0.03 g/L | Residual glucose [11]: 47.4 ± 1.3 g/L | Butanol concentration [12]: 1.00 ± 0.03 g/L | Residual glucose [12]: 44.9 ± 0.5 g/L | Butanol concentration [13]: 1.17 ± 0.12^c g/L | Residual glucose [13]: 44.1 ± 3.1 g/L | Butanol concentration [14]: 0.98 ± 0.07 g/L | Residual glucose [14]: 46.4 ± 0.9^c g/L

SYPGWSW [peptide SEQ ID NO: 143]
Residual glucose (50 nM peptide, 0 hours, average ± SD of triplicate): 53.7 ± 0.9 g/L | Butanol yield from glucose (50 nM peptide, 0 hours): 0.001 g butanol/g glucose | Residual glucose (50 nM peptide, 6 hours, average ± SD of triplicate): 56.2 ± 0.4 g/L | Butanol yield from glucose (50 nM peptide, 6 hours): 0.001 g butanol/g glucose | Residual glucose (50 nM peptide, 12 hours, average ± SD of triplicate): 56.1 ± 0.7 g/L | Butanol yield from glucose (50 nM peptide, 12 hours): 0.001 g butanol/g glucose | Residual glucose (50 nM peptide, 18 hours, average ± SD of triplicate): 54.7 ± 0.2^c g/L | Butanol yield from glucose (50 nM peptide, 18 hours): 0.002 g butanol/g glucose | Residual glucose (50 nM peptide, 21 hours, average ± SD of triplicate): 52.0 ± 0.3 g/L | Butanol yield from glucose (50 nM peptide, 21 hours): 0.002 g butanol/g glucose | Residual glucose (50 nM peptide, 24 hours, average ± SD of triplicate): 49.7 ± 0.5^c g/L | Butanol yield from glucose (50 nM peptide, 24 hours): 0.003 g butanol/g glucose | Residual glucose (50 nM peptide, 27 hours, average ± SD of triplicate): 46.4 ± 0.4 g/L | Butanol yield from glucose (50 nM peptide, 27 hours): 0.007 g butanol/g glucose | Residual glucose (50 nM peptide, 30 hours, average ± SD of triplicate): 46.6 ± 0.4 g/L | Butanol yield from glucose (50 nM peptide, 30 hours): 0.011 g butanol/g glucose | Residual glucose (50 nM peptide, 33 hours, average ± SD of triplicate): 45.9 ± 0.6 g/L | Butanol yield from glucose (50 nM peptide, 33 hours): 0.032 g butanol/g glucose | Residual glucose (50 nM peptide, 36 hours, average ± SD of triplicate): 46.2 ± 0.5 g/L | Butanol yield from glucose (50 nM peptide, 36 hours): 0.032 g butanol/g glucose | Residual glucose (50 nM peptide, 48 hours, average ± SD of triplicate): 45.7 ± 0.3 g/L | Butanol yield from glucose (50 nM peptide, 48 hours): 0.033 g butanol/g glucose | Residual glucose (50 nM peptide, 72 hours, average ± SD of triplicate): 45.8 ± 0.1 g/L | Butanol yield from glucose (50 nM peptide, 72 hours): 0.028 g butanol/g glucose | Residual glucose (50 nM peptide, 96 hours, average ± SD of triplicate): 45.8 ± 0.2^c g/L | Butanol yield from glucose (50 nM peptide, 96 hours): 0.029 g butanol/g glucose | Butanol productivity (50 nM peptide, sampling interval ending at 6 hours): 0.000 g butanol/L-h | Butanol productivity (50 nM peptide, sampling interval ending at 12 hours): 0.000 g butanol/L-h | Butanol productivity (50 nM peptide, sampling interval ending at 18 hours): 0.010 g butanol/L-h | Butanol productivity (50 nM peptide, sampling interval ending at 21 hours): 0.004 g butanol/L-h | Butanol productivity (50 nM peptide, sampling interval ending at 24 hours): 0.024 g butanol/L-h | Butanol productivity (50 nM peptide, sampling interval ending at 27 hours): 0.074 g butanol/L-h | Butanol productivity (50 nM peptide, sampling interval ending at 30 hours): 0.069 g butanol/L-h | Butanol productivity (50 nM peptide, sampling interval ending at 33 hours): 0.377 g butanol/L-h | Butanol productivity (50 nM peptide, sampling interval ending at 36 hours): 0.002 g butanol/L-h | Butanol productivity (50 nM peptide, sampling interval ending at 48 hours): 0.002 g butanol/L-h | Butanol productivity (50 nM peptide, sampling interval ending at 72 hours): −0.011 g butanol/L-h | Butanol productivity (50 nM peptide, sampling interval ending at 96 hours): 0.002 g butanol/L-h | Butanol concentration relative to untreated cultures (50 nM, 33 hours): more than double | Yield of butanol relative to untreated cultures (50 nM, 33 hours): more than double | Butanol yield increase compared to untreated culture (50 nM, end of the study (96 hours of growth)): 53% | Butanol productivity relative to untreated cultures (50 nM, peak butanol formation stage (between 24 and 33 hours), listed as BP110517): nearly doubled; also recorded: more than doubled | Increase in butanol yield (BP110517, batch cultures (summary of findings)): more than 50% | Butanol concentration (Treated, 50 nM, 0 hours, average and standard deviation of triplicate samples): 0.06 ± 0.00 g/L | Butanol concentration (Treated, 50 nM, 6 hours, average and standard deviation of triplicate samples): 0.06 ± 0.00 g/L | Butanol concentration (Treated, 50 nM, 12 hours, average and standard deviation of triplicate samples): 0.06 ± 0.00 g/L | Butanol concentration (Treated, 50 nM, 18 hours, average and standard deviation of triplicate samples): 0.09 ± 0.00^c g/L | Butanol concentration (Treated, 50 nM, 21 hours, average and standard deviation of triplicate samples): 0.10 ± 0.00 g/L | Butanol concentration (Treated, 50 nM, 24 hours, average and standard deviation of triplicate samples): 0.17 ± 0.01^c g/L | Butanol concentration (Treated, 50 nM, 27 hours, average and standard deviation of triplicate samples): 0.39 ± 0.03^c g/L | Butanol concentration (Treated, 50 nM, 30 hours, average and standard deviation of triplicate samples): 0.60 ± 0.03^c g/L | Butanol concentration (Treated, 50 nM, 33 hours, average and standard deviation of triplicate samples): 1.73 ± 0.27^c g/L | Butanol concentration (Treated, 50 nM, 36 hours, average and standard deviation of triplicate samples): 1.74 ± 0.16 g/L | Butanol concentration (Treated, 50 nM, 48 hours, average and standard deviation of triplicate samples): 1.76 ± 0.26^c g/L | Butanol concentration (Treated, 50 nM, 72 hours, average and standard deviation of triplicate samples): 1.48 ± 0.29 g/L | Butanol concentration (Treated, 50 nM, 96 hours, average and standard deviation of triplicate samples): 1.53 ± 0.29 g/L
